Values of other authors as cited in patent publication US20230028307A1, “TREATMENT OF NEUROLOGICAL DISORDERS WITH AVERMECTINS” (Equilibre BioPharmaceuticals BV, priority 2020, published 2023).

Columns and labels:
[1] = system: episodes of epileptic attack; conditions: patients suffering from onchoceriasis treated with ivermectin
[2] = humans, relatively large doses

For ivermectin, the “episodes of epileptic attack” value [1] is listed as “reduced” and the side effects [2] is listed as “no significant side effects”.
